In patent US10377773B2, “Isothiazolopyrimidinones, pyrazolopyrimidinones, and pyrrolopyrimidinones as ubiquitin-specific protease 7 inhibitors” (FORMA Therapeutics, Inc., priority 2015, dated 2019) one finds IC50 data, which are given here for 9 molecules.

T1 sequence (Q93009 208-1102): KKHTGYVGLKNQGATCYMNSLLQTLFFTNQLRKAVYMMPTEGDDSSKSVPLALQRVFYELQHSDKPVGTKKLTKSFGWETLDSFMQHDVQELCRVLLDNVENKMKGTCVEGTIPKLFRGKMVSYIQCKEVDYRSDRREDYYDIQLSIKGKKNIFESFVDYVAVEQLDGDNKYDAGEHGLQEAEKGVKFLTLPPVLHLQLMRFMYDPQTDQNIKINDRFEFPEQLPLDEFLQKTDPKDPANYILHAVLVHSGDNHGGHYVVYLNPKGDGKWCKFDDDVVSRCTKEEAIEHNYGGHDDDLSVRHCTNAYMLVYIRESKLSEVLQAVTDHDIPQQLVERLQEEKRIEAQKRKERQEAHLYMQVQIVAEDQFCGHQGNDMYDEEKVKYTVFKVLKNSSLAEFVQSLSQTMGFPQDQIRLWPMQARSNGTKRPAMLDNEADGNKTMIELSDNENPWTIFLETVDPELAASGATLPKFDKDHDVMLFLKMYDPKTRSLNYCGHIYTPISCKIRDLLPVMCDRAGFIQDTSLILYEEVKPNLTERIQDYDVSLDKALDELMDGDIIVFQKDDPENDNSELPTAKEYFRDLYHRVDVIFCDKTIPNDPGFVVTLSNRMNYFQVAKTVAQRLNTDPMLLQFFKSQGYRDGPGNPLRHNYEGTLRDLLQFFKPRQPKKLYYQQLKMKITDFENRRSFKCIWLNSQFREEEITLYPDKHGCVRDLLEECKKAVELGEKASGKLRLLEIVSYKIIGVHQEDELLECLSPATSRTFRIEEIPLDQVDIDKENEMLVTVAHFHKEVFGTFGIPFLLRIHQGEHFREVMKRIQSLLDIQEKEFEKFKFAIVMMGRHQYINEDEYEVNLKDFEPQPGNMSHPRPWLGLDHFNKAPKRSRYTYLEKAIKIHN

This experiment has as its target T1, USP7 (Homo sapiens, UniProt Q93009).
T1 construct: USP7, construct USP7 (208-1102) 6*His, Viva Biotech; initiator Met (N); TEV site (C); 6*His (C); purchased Viva Biotech
The experiment can be described thus: USP7 Assay A and B (Ubiquitin-Rhodamine 110 assay). As to conditions: Ub-Rh110 substrate 25 nM, read-out: USP7_IC50. It counts as biochemical. The protocol: Each assay was performed in a final volume of 15 μL in assay buffer containing 20 mM Tris-HCl (pH 8.0, (1M Tris-HCl, pH 8.0 solution; Corning 46-031-CM)), 1 mM GSH (L-Glutathione reduced; Sigma #G4251), 0.03% BGG (0.22 μM filtered, Sigma, #G7516-25G), and 0.01% Triton X-100 (Sigma, #T9284-10L). Nanoliter quantities of either an 8-point or 10-point, 3-fold serial dilution in DMSO was pre-dispensed into assay plates (Perkin Elmer, ProxiPlate-384 F Plus, #6008269) for a final test concentration range of either 25 μM to 11 nM or 25 μM to 1.3 nM, respectively. The final concentration of the enzyme (USP7, construct USP7 (208-1102) 6*His, Viva Biotech) in the assay was 62.5 pM. Final substrate (Ub-Rh110; Ubiquitin-Rhodamine 110, R&D Systems #U-555) concentration was 25 nM with [Ub-Rh110]<<Km. 5 μL of 2× enzyme was added to the assay plates (pre-stamped with compound) and preincubated with USP7 for 30 min. 5 μL of 2×Ub-Rh110 was then added to assay plates. Plates were incubated stacked for 20 min at room temperature before 5 μL of stop solution (final concentration of 10 mM citric acid in assay buffer (Sigma, #251275-500G)). Fluorescence was read on the Envision (Excitation at 485 nm and Emission at 535 nm; Perkin Elmer) or on the PheraSTAR (Excitation at 485 nm and Emission at 535 nm; BMG Labtech).
Each assay was performed in a final volume of 20 μL in assay buffer containing 20 mM Tris-HCl (pH 8.0, (1M Tris-HCl, pH 8.0 solution; Corning 46-031-CM)), 2 mM CaCl2 (1M calcium chloride solution; Sigma #21114), 1 mM GSH (L-Glutathione reduced; Sigma #G4251), 0.01% Prionex (0.22 μM filtered, Sigma #G-0411), and 0.01% Triton X-100. Stock compound solutions were stored at −20° C. as 10 mM in DMSO. Up to 1 month prior to the assay, 2 mM test compounds were pre-dispensed into assay plates (Black, low volume; Corning #3820) and frozen at −20° C. Prestamped assay plates were allowed to warm to room temperature on the day of the assay. For the screen, 100 nL of 2 mM was pre-dispensed for a final screening concentration of 10 μM (DMSO(fc)=0.5%). For follow-up studies, 250 nL of an 8-point, 3-fold serial dilution in DMSO was pre-dispensed into assay plates for a final test concentration of 25 μM-11 nM (1.25c % DMSO final concentration). Unless otherwise indicated, all follow-up assays were run on triplecate plates. Enzyme (USP7, construct Met (208-1102)-TEV-6*His; Viva Q93009-1) concentration and incubation times were optimized for the maximal signal-to-background while maintaining initial velocity conditions at a fixed substrate concentration. The final concentration of the enzyme in the assay was either 75 pM or 250 pM. Final substrate (Ub-Rh110; Ubiquitin-Rhodamine 110, R&D Systems (biotechne)#U-555) concentration was 25 nM with [Ub-Rh110]<<Km. Compounds were either not preincubated or preincubated with USP7 between 30 to 120 min prior to the addition of 10 μL of 2×Ub-Rh110 to compound plates. Plates were incubated stacked for either 23 or 45 min at room temperature before fluorescence was read on the Envision (Excitation at 485 nm and Emission at 535 nm; Perkin Elmer) or on the PheraSTAR (Excitation at 485 nm and Emission at 535 nm; BMG Labtech).
Data from USP7 Assays A and B were reported as percent inhibition (inh) compared with control wells based on the following equation: % inh=1−((FLU−AveLow)/(AveHigh−AveLow)) where FLU=measured Fluorescence, AveLow=average Fluorescence of no enzyme control (n=16), and AveHigh=average Fluorescence of DMSO control (n=16). IC50 values were determined by curve fitting of the standard 4 parameter logistic fitting algorithm included in the Activity Base software package: IDBS XE Designer Model205. Data was fitted using the Levenburg Marquardt algorithm.
Regarding `COc1ccc(C(=O)N2CCC(O)(Cn3cnc4c(-c5ccc(F)cc5)n[nH]c4c3=O)CC2)cc1` [Compound I-20, 3-(4-fluorophenyl)-6-{[4-hydroxy-1-(4-methoxybenzoyl)piperidin-4-yl]methyl}-1H, 6H,7H-pyrazolo[4,3-d]pyrimidin-7-one], the IC50 was 1000 to 10000 nM.

Turning to `O=C(C[C@@H](c1ccccc1)C(F)F)N1CCC(O)(Cn2cnc3c(-c4ccccc4)nsc3c2=O)CC1` [Compound I-19, 6-({1-[(3 S)-4,4-difluoro-3-phenylbutanoyl]-4-hydroxypiperidin-4-yl}methyl)-3-phenyl-6H, 7H-[1,2]thiazolo[4,5-d]pyrimidin-7-one], the IC50 is 500 to 1000 nM. To `O=C(CC(c1ccccc1)C(F)F)N1CCC(O)(Cn2cnc3c(-c4ccccc4)nsc3c2=O)CC1` (stereo not drawn) [Compound I-17, 6-{[1-(4,4-difluoro-3-phenylbutanoyl)-4-hydroxypiperidin-4-yl]methyl}-3-phenyl-6H,7H-[1,2]thiazolo[4,5-d]pyrimidin-7-one] belongs 1000 to 10000 nM.

Take `O=C1NCCN1CCOc1cccc(-c2nsc3c(=O)n(CC4(O)CCN(C(=O)C5CC5)CC4)cnc23)c1` [Compound I-27, 1-[2-(3-{6-[(1-cyclopropanecarbonyl-4-hydroxypiperidin-4-yl)methyl]-7-oxo-6H,7H-[1,2]thiazolo[4,5-d]pyrimidin-3-yl}phenoxy)ethyl]imidazolidin-2-one]: the IC50 was in the range of 1000 to 10000 nM.

Turning to `O=C(c1ccc(F)cc1)N1CCC(O)(Cn2cnc3c(-c4cccc(CO)c4)nsc3c2=O)CC1` [Compound I-4, 6-{[1-(4-fluorobenzoyl)-4-hydroxypiperidin-4-yl]methyl}-3-[3-(hydroxymethyl)phenyl]-6H,7H-[1,2]thiazolo[4,5-d]pyrimidin-7-one], the IC50 fell in the range of 1000 to 10000 nM. To `O=C(CCC(F)(F)F)N1CCC(O)(Cn2cnc3c(-c4ccc(F)cc4)nsc3c2=O)CC1` [Compound I-25, 3-(4-fluorophenyl)-6-{[4-hydroxy-1-(4,4,4-trifluorobutanoyl)piperidin-4-yl]methyl}-6H,7H-[1,2]thiazolo[4,5-d]pyrimidin-7-one] belongs above 10000 nM; to `O=C(c1ccc(F)cc1)N1CCC(O)(Cn2cnc3c(-c4ccc(CO)cc4)nsc3c2=O)CC1` [Compound I-23, 6-{[1-(4-fluorobenzoyl)-4-hydroxypiperidin-4-yl]methyl}-3-[4-(hydroxymethyl)phenyl]-6H,7H-[1,2]thiazolo[4,5-d]pyrimidin-7-one], 1000 to 10000 nM; to `COc1ccc(C(=O)N2CCC(O)(Cn3cnc4c(-c5ccc(CO)cc5)nsc4c3=O)CC2)cc1` [Compound I-24, 6-{[4-hydroxy-1-(4-methoxybenzoyl)piperidin-4-yl]methyl}-3-[4-(hydroxymethyl)phenyl]-6H,7H-[1,2]thiazolo[4,5-d]pyrimidin-7-one], 1000 to 10000 nM. The value for `CC(CC(=O)N1CCC(O)(Cn2cnc3c(-c4ccccc4)nsc3c2=O)CC1)n1cccn1` (stereo not drawn) [Compound I-14, 6-({4-hydroxy-1-[3-(1H-pyrazol-1-yl)butanoyl]piperidin-4-yl}methyl)-3-phenyl-6H,7H-[1,2]thiazolo[4,5-d]pyrimidin-7-one] was 1000 to 10000 nM.
